According to patent US12649751B2 (Arcus Biosciences, Inc., priority 2022, dated 2026):
pIC50: −log10 of the molar value. Like-named read-outs stand apart in the source and are kept apart here.

Tests used:
[1] = system: p-SLP-76 (Ser376) in Jurkat cells; assay: pSLP76 Cellular Assay (AlphaLISA SureFire Ultra p-SLP-76 (Ser376), anti-CD3 activated Jurkat cells); format: cell-based; conditions: Homo sapiens, read-out: Cellular Potency
Procedure, shortened: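 Jurkat cells, serum-starved overnight in Opti-MEM then in HBSS, preincubated 1 h at 37 °C with 22-point 2-fold compound dilutions, then stimulated with anti-CD3 (0.025 mg/ml added solution) for 45 min. Lysate p-SLP-76 (Ser376) measured by AlphaLISA at 570 nm; IC50 from 4-parameter logistic fit.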

HPK1 = HPK1 (Homo sapiens, UniProt Q92918); assay: HPK1 Biochemical Assay (ADP-Glo luminescence; low ATP 10 μM or high ATP 200 μM)
[2] = Jurkat cells, anti-CD3 stimulation, pSLP76
[3] = 2 nM HPK1, 10 μM ATP, read-out: Biochemical Potency (low ATP)
[4] = pSLP76 (Ser376) AlphaLISA, anti-CD3 activated Jurkat cells
[5] = HPK1 ADP-Glo assay, high ATP (200 μM ATP, 5 nM HPK1), read-out: Biochemical Potency (high ATP)
[6] = HPK1 ADP-Glo assay, low ATP (10 μM ATP, 2 nM HPK1), read-out: Biochemical Potency (low ATP)

Sequence of HPK1 (Q92918 whole entry, species assumed): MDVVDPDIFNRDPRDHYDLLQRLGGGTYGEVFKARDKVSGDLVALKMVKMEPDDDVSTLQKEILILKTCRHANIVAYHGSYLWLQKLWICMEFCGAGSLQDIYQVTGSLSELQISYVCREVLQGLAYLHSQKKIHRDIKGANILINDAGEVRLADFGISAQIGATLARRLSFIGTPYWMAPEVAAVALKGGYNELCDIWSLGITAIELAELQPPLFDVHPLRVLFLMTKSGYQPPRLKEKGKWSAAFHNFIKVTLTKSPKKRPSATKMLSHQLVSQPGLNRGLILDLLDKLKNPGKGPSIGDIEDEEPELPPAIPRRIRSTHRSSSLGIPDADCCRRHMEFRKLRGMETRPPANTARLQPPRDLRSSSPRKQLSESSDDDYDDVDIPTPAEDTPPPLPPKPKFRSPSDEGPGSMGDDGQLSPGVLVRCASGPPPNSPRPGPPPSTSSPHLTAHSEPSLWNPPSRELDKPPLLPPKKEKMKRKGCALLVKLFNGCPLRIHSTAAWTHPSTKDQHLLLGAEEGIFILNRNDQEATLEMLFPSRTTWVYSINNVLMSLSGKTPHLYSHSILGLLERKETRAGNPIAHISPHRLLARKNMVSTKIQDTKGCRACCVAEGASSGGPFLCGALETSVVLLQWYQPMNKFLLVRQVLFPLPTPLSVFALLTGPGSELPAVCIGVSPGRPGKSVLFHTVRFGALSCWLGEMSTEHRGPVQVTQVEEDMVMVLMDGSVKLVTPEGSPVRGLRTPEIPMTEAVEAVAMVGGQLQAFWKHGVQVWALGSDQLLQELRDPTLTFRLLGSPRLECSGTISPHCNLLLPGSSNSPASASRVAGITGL

| SMILES | pIC50 [1, 2] | pIC50 (HPK1; [3]) | pIC50 [1, 4] | pIC50 (HPK1; [5]) | pIC50 (HPK1; [6]) |
| --- | --- | --- | --- | --- | --- |
| Cc1cccnc1-c1nc2cc(Nc3ccc(C4CCOCC4)c(CN4CC[C@H](F)C4)n3)ncc2s1 [Example 214, 6-{[(3S)-3-Fluoropyrrolidin-1-yl]methyl}-N-[2-(3-methylpyridin-2-yl)-[1,3]thiazolo[5,4-c]pyridin-6-yl]-5-(oxan-4-yl)pyridin-2-amine] | 6.00 to 7.00 | > 7.00 |  |  |  |
| CN1C[C@@H]2C[C@H]1CN2c1nccc(Nc2cc3nc(-c4ccnc(C(C)(O)C(F)(F)F)c4)sc3cn2)n1 (stereo partly shown) [Example 408] |  |  | 6.00 to 7.00 | > 7.00 | > 7.00 |
| CN1C[C@@H]2C[C@H]1CN2c1cccc(Nc2cc3nc(-c4cccc(C(C)(C)O)c4)sc3cn2)n1 [Example 132, 2-{3-[6-({6-[(1S,4S)-5-Methyl-2,5-diazabicyclo[2.2.1]heptan-2-yl]pyridin-2-yl}amino)-[1,3]thiazolo[5,4-c]pyridin-2-yl]phenyl}propan-2-ol] | > 7.00 | > 7.00 |  |  |  |
| Cc1cccnc1-c1nc2cc(Nc3cc(C(C)C)nc(N4C[C@@H]5C[C@H]4CN5)n3)ncc2s1 [Example 435] |  |  | 6.00 to 7.00 | > 7.00 |  |
| Cc1cc(Nc2cc3nc(-c4ccnc(N5CC6CCC(C5)O6)c4)sc3cn2)nc(N2C[C@@H]3C[C@H]2CN3CCO)n1 [Example 448] |  |  | 6.00 to 7.00 | > 7.00 |  |
| c1cnn(-c2nc3cc(Nc4ccnc(N5C[C@@H]6C[C@H]5CN6)n4)ncc3s2)c1 [Example 431] |  |  | 6.00 to 7.00 | > 7.00 | > 7.00 |
| Cc1cc(Nc2cc3nc(-c4ccnc(N5CCS(=O)(=O)CC5)c4)sc3cn2)nc(N2C[C@@H]3C[C@H]2CN3C)n1 [Example 478] |  |  | 6.00 to 7.00 | > 7.00 |  |
| c1cnn(-c2nc3cc(Nc4cncc(N5C[C@@H]6C[C@H]5CN6)n4)ncc3s2)c1 [Example 430] |  |  | 6.00 to 7.00 | > 7.00 | > 7.00 |
| CN(C)Cc1nc(Nc2cc3nc(-c4c(F)cccc4C(F)(F)F)sc3cn2)ccc1N1CCOCC1 [Example 15, 6-[(Dimethylamino)methyl]-N-{2-[2-fluoro-6-(trifluoromethyl)phenyl]-[1,3]thiazolo[5,4-c]pyridin-6-yl}-5-(morpholin-4-yl)pyridin-2-amine] | 6.00 to 7.00 | > 7.00 |  |  |  |
| c1ccc(-c2nc3cc(Nc4ccc(N5CCOCC5)c(CN5CCCC5)n4)ncc3s2)nc1 [Example 7, 5-(Morpholin-4-yl)-N-[2-(pyridin-2-yl)-[1,3]thiazolo[5,4-c]pyridin-6-yl]-6-[(pyrrolidin-1-yl)methyl]pyridin-2-amine] | 5.30 to 6.00 | > 7.00 |  |  |  |
| Cc1ccc(Nc2cc3nc(-c4ncccc4C)sc3cn2)nc1CN1CCC[C@@H]1CO [Example 49, [(2R)-1-[(3-Methyl-6-{[2-(3-methylpyridin-2-yl)-[1,3]thiazolo[5,4-c]pyridin-6-yl]amino}pyridin-2-yl)methyl]pyrrolidin-2-yl]methanol] | 5.30 to 6.00 | > 7.00 |  |  |  |
| Cc1cccnc1-c1nc2cc(Nc3ccnc(N4C[C@@H](N)C[C@H]4CO)n3)ncc2s1 [Example 155, [(2S,4S)-4-Mmino-1-(4-{[2-(3-methylpyridin-2-yl)-[1,3]thiazolo[5,4-c]pyridin-6-yl]amino}pyrimidin-2-yl)pyrrolidin-2-yl]methanol] | 6.00 to 7.00 | > 7.00 |  |  |  |
| Cc1cc(Nc2cc3nc(-c4cccc(C(=O)N5C[C@@H]6C[C@H]5CO6)c4)sc3cn2)nc(N2C[C@@H]3C[C@H]2CN3CCO)n1 [Example 564] |  |  | 6.00 to 7.00 | > 7.00 |  |
| Cc1cccnc1-c1nc2cc(Nc3cccc(C4(F)CC5CC4CN5)n3)ncc2s1 (stereo not shown) [Example 315, {6-(5-fluoro-2-azabicyclo[2.2.1]hept-5-yl)-2-pyridyl}[2-(3-methyl-2-pyridyl)-3-thia-1,5-diaza-6-indenyl]amine] |  |  | 5.30 to 6.00 | > 7.00 | > 7.00 |
| Cc1cccnc1-c1nc2cc(Nc3cccc(N4CCNC5CC54)n3)ncc2s1 (stereo not shown) [Example 87, 6-{2,5-Diazabicyclo[4.1.0]heptan-2-yl}-N-[2-(3-methylpyridin-2-yl)-[1,3]thiazolo[5,4-c]pyridin-6-yl]pyridin-2-amine] | 5.30 to 6.00 | > 7.00 |  |  |  |
| Cc1cccnc1-c1nc2cc(Nc3cc(-c4cnccc4C#N)cc(N4C[C@@H]5C[C@H]4CN5C)n3)ncc2s1 [Example 434] |  |  | 6.00 to 7.00 | > 7.00 |  |
| Cc1cccnc1-c1nc2cc(Nc3cc(F)cc(N4C[C@@H]5C[C@H]4CN5)n3)ncc2s1 [Example 334] |  |  | > 7.00 |  | > 7.00 |
| Cc1cccnc1-c1nc2cc(Nc3nc(N4C[C@@H]5C[C@H]4CN5)ccc3F)ncc2s1 [Example 320] |  |  | 6.00 to 7.00 | > 7.00 | > 7.00 |
| CNS(=O)(=O)c1cccc(-c2nc3cc(Nc4cncc(N5C[C@@H]6C[C@H]5CN6C)n4)ncc3s2)c1 [Example 290, N-methyl-3-[6-({6-[(1S,4S)-5-methyl-2,5-diazabicyclo[2.2.1]heptan-2-yl]pyrazin-2-yl}amino)-[1,3]thiazolo[5,4-c]pyridin-2-yl]benzene-1-sulfonamide] | 6.00 to 7.00 | > 7.00 |  |  |  |
| Cc1cccnc1-c1nc2cc(Nc3ccc(C)c(N4CCC[C@H](N)C4)n3)ncc2s1 [Example 71, 6-[(3S)-3-Aminopiperidin-1-yl]-5-methyl-N-[2-(3-methylpyridin-2-yl)-[1,3]thiazolo[5,4-c]pyridin-6-yl]pyridin-2-amine] | 5.30 to 6.00 | > 7.00 |  |  |  |

More lines, now with the values ahead:

| pIC50 [1, 2] | pIC50 (HPK1; [3]) | pIC50 [1, 4] | pIC50 (HPK1; [5]) | pIC50 (HPK1; [6]) | SMILES |
| --- | --- | --- | --- | --- | --- |
|  |  | 6.00 to 7.00 | > 7.00 |  | CCN1C[C@@H]2C[C@H]1CN2c1nc(C)cc(Nc2cc3nc(-c4cccc(S(=O)(=O)CC(C)C)c4)sc3cn2)n1 [Example 339] |
|  |  | 6.00 to 7.00 | > 7.00 |  | Cc1cc(Nc2cc3nc(-c4cncc(C(F)F)c4)sc3cn2)nc(N2C[C@@H]3C[C@H]2CN3C)n1 [Example 384] |
|  |  | > 7.00 | > 7.00 |  | Cc1cc(Nc2cc3nc(-c4cccc(C(=O)N(C)[C@@H](C)CO)c4)sc3cn2)nc(N2C[C@@H]3C[C@H]2CN3CC2CC2)n1 [Example 560] |
|  |  | 6.00 to 7.00 | > 7.00 |  | Cc1cc(Nc2cc3nc(-c4cnn(CC5CC5)c4)sc3cn2)nc(N2C[C@@H]3C[C@H]2CN3CC(C)(C)O)n1 [Example 503] |
|  |  | 5.30 to 6.00 | > 7.00 |  | Cc1cc(Nc2cc3nc(-c4cccn5nccc45)sc3cn2)nc(N2C[C@@H]3C[C@H]2CN3CCO)n1 [Example 360] |
|  |  | > 7.00 | > 7.00 |  | Cc1cc(Nc2cc3nc(-c4cnn(CC5CC5)c4)sc3cn2)nc(N2C[C@@H]3C[C@H]2CN3CCO)n1 [Example 370] |
|  |  | 5.30 to 6.00 | > 7.00 |  | CCN1C[C@@H]2C[C@H]1CN2c1nc(C)cc(Nc2cc3nc(-c4cccc(N5CCC(F)CC5)c4)sc3cn2)n1 [Example 338] |
|  |  | 6.00 to 7.00 | > 7.00 |  | COCCN(C)C(=O)c1cccc(-c2nc3cc(Nc4cc(C)nc(N5C[C@@H]6C[C@H]5CN6C)n4)ncc3s2)c1 [Example 566] |
|  |  | > 7.00 | > 7.00 |  | CCN1C[C@@H]2C[C@H]1CN2c1nc(C)cc(Nc2cc3nc(-c4cccc(C(=O)NC5CCOC5)c4)sc3cn2)n1 (stereo partly shown) [Example 556] |
|  |  | 6.00 to 7.00 | > 7.00 |  | Cc1cc(Nc2cc3nc(-c4cccc(C(=O)N5CCOCC5)c4)sc3cn2)nc(N2C[C@@H]3C[C@H]2CN3CCO)n1 [Example 565] |
|  |  | 6.00 to 7.00 | > 7.00 |  | Cc1cc(Nc2cc3nc(-c4cccc(N5CC(F)C5)c4)sc3cn2)nc(N2C[C@@H]3C[C@H]2CN3C)n1 [Example 479] |
|  |  | > 7.00 | > 7.00 |  | CCN1C[C@@H]2C[C@H]1CN2c1nc(C)cc(Nc2cc3nc(-c4cccc(S(=O)(=O)C5CC5)c4)sc3cn2)n1 [Example 340] |
|  |  | 6.00 to 7.00 | > 7.00 |  | Cc1cc(Nc2cc3nc(-c4ncc(C)o4)sc3cn2)nc(N2C[C@@H]3C[C@H]2CN3C)n1 [Example 373] |
|  |  | 6.00 to 7.00 | > 7.00 |  | Cc1cc(Nc2cc3nc(-c4cccc(C(=O)N(C)C)c4)sc3cn2)nc(N2C[C@@H]3C[C@H]2CN3Cc2ccccn2)n1 [Example 493] |
|  |  | 6.00 to 7.00 | > 7.00 |  | Cc1cc(Nc2cc3nc(-c4cccc(N5CCOCC5)c4)sc3cn2)nc(N2C[C@@H]3C[C@H]2CN3CCO)n1 [Example 349] |
|  |  | > 7.00 | > 7.00 |  | CCc1cc(C(=O)N(C)C)cc(-c2nc3cc(Nc4cc(C)nc(N5C[C@@H]6C[C@H]5CN6CCO)n4)ncc3s2)c1 [Example 546] |
|  |  | > 7.00 | > 7.00 |  | CCN1C[C@@H]2C[C@H]1CN2c1nc(C)cc(Nc2cc3nc(Oc4cccnc4)sc3cn2)n1 [Example 484] |
|  |  | 6.00 to 7.00 | > 7.00 |  | Cc1cc(Nc2cc3nc(-c4cccc(-c5ncccc5C)c4)sc3cn2)nc(N2C[C@@H]3C[C@H]2CN3C)n1 [Example 586] |
|  |  | > 7.00 | > 7.00 |  | CCN1C[C@@H]2C[C@H]1CN2c1nc(C)cc(Nc2cc3nc(O[C@H](C)c4ccccc4)sc3cn2)n1 [Example 298, 2-[(1S,4S)-5-ethyl-2,5-diazabicyclo[2.2.1]heptan-2-yl]-6-methyl-N-{2-[(1R)-1-phenylethoxy]-[1,3]thiazolo[5,4-c]pyridin-6-yl}pyrimidin-4-amine] |
|  |  | 6.00 to 7.00 | > 7.00 |  | Cc1cc(Nc2cc3nc(-c4cc(C#N)cc(C(=O)N(C)C)c4)sc3cn2)nc(N2C[C@@H]3C[C@H]2CN3CCO)n1 [Example 554] |
